Measurements from PubChem BioAssay (NCI).
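Assay format: 96-well plates, 48-hour exposure. GI50: concentration for 50% inhibition of growth. At the TGI there is no net growth.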

Tests used:
Test in all cases: DTP human tumour cell line panel, 48 h
T-47D breast = tested on: T-47D breast
SF-268 CNS = tested on: SF-268 CNS
SK-OV-3 ovarian = tested on: SK-OV-3 ovarian
MDA-MB-231 breast = tested on: MDA-MB-231 breast
HT29 colon = tested on: HT29 colon
SNB-75 CNS = tested on: SNB-75 CNS
NCI-H460 lung = tested on: NCI-H460 lung
OVCAR-5 ovarian = tested on: OVCAR-5 ovarian
HOP-92 NSCLC = tested on: HOP-92 NSCLC
HOP-62 NSCLC = tested on: HOP-62 NSCLC
MOLT-4 leukemia = tested on: MOLT-4 leukemia
MALME-3M melanoma = tested on: MALME-3M melanoma
UO-31 renal = tested on: UO-31 renal
PC-3 prostate = tested on: PC-3 prostate
A549 NSCLC = tested on: A549 NSCLC
IGROV1 ovarian = tested on: IGROV1 ovarian
NCI-H23 lung = tested on: NCI-H23 lung
DU-145 prostate = tested on: DU-145 prostate
UACC-257 melanoma = tested on: UACC-257 melanoma
NCI-H226 lung = tested on: NCI-H226 lung
OVCAR-4 ovarian = tested on: OVCAR-4 ovarian
SK-MEL-2 melanoma = tested on: SK-MEL-2 melanoma
MDA-N = tested on: MDA-N
SNB-19 CNS = tested on: SNB-19 CNS
MDA-MB-435 = tested on: MDA-MB-435
NCI/ADR-RES ovarian = tested on: NCI/ADR-RES ovarian
SK-MEL-5 melanoma = tested on: SK-MEL-5 melanoma
ACHN renal = tested on: ACHN renal
SR leukemia = tested on: SR leukemia
KM12 colon = tested on: KM12 colon
LOX IMVI melanoma = tested on: LOX IMVI melanoma
A498 renal = tested on: A498 renal
TK-10 renal = tested on: TK-10 renal
HCT-15 colon = tested on: HCT-15 colon
786-0 renal = tested on: 786-0 renal
HS 578T breast = tested on: HS 578T breast
UACC-62 melanoma = tested on: UACC-62 melanoma
SF-539 CNS = tested on: SF-539 CNS
M14 melanoma = tested on: M14 melanoma
SF-295 CNS = tested on: SF-295 CNS
HCT-116 colon = tested on: HCT-116 colon
SW-620 colon = tested on: SW-620 colon
HL-60(TB) leukemia = tested on: HL-60(TB) leukemia
RPMI-8226 leukemia = tested on: RPMI-8226 leukemia
RXF 393 renal = tested on: RXF 393 renal
OVCAR-8 ovarian = tested on: OVCAR-8 ovarian
MCF7 breast = tested on: MCF7 breast
COLO 205 colon = tested on: COLO 205 colon
CCRF-CEM leukemia = tested on: CCRF-CEM leukemia
OVCAR-3 ovarian = tested on: OVCAR-3 ovarian
SN12C renal = tested on: SN12C renal
HCC-2998 colon = tested on: HCC-2998 colon
NCI-H522 lung = tested on: NCI-H522 lung
U251 CNS = tested on: U251 CNS
SK-MEL-28 melanoma = tested on: SK-MEL-28 melanoma
CAKI-1 renal = tested on: CAKI-1 renal
BT-549 breast = tested on: BT-549 breast
K-562 leukemia = tested on: K-562 leukemia
EKVX NSCLC = tested on: EKVX NSCLC

O=c1cc(-c2ccccc2Cl)[nH]c2cc3c(cc12)OCO3
TGI (T-47D breast): > 100 µM
TGI (SF-268 CNS): > 58.9 µM
TGI (SK-OV-3 ovarian): 11.4 µM
TGI (MDA-MB-231 breast): 0.982 µM
TGI (HT29 colon): 1.46 µM
TGI (SNB-75 CNS): > 100 µM
TGI (NCI-H460 lung): 5.24 µM
TGI (OVCAR-5 ovarian): > 100 µM
TGI (HOP-92 NSCLC): 67.5 µM
TGI (HOP-62 NSCLC): 11.3 µM
TGI (MOLT-4 leukemia): 2.33 µM
TGI (MALME-3M melanoma): > 100 µM
TGI (UO-31 renal): > 20 µM
TGI (PC-3 prostate): > 100 µM
TGI (A549 NSCLC): > 16.7 µM
TGI (IGROV1 ovarian): > 37.5 µM
TGI (NCI-H23 lung): > 11 µM
TGI (DU-145 prostate): > 18.8 µM
TGI (UACC-257 melanoma): > 72 µM
TGI (NCI-H226 lung): 0.689 µM
TGI (OVCAR-4 ovarian): > 9.75 µM
TGI (SK-MEL-2 melanoma): 3.74 µM
TGI (MDA-N): 38.3 nM
TGI (SNB-19 CNS): > 100 µM
TGI (MDA-MB-435): 0.0313 µM
TGI (NCI/ADR-RES ovarian): 0.0698 µM
TGI (SK-MEL-5 melanoma): 2.03 µM
TGI (ACHN renal): > 73.9 µM
TGI (SR leukemia): > 100 µM
TGI (KM12 colon): > 31.6 µM
TGI (LOX IMVI melanoma): 11.9 µM
TGI (A498 renal): 4.16 µM
TGI (TK-10 renal): > 44.7 µM
TGI (HCT-15 colon): 0.355 µM
TGI (786-0 renal): 29.8 µM
TGI (HS 578T breast): 4.06 µM
TGI (UACC-62 melanoma): 15.7 µM
TGI (SF-539 CNS): 0.458 µM
TGI (M14 melanoma): 24.3 µM
TGI (SF-295 CNS): 3.03 µM
TGI (HCT-116 colon): 16 µM
TGI (SW-620 colon): > 100 µM
TGI (HL-60(TB) leukemia): 51.1 nM
TGI (RPMI-8226 leukemia): 0.565 µM
TGI (RXF 393 renal): 16.4 µM
TGI (OVCAR-8 ovarian): 9.88 µM
TGI (MCF7 breast): > 100 µM
TGI (COLO 205 colon): 195 nM
TGI (CCRF-CEM leukemia): 381 nM
TGI (OVCAR-3 ovarian): 400 nM
TGI (SN12C renal): 29.1 µM
TGI (HCC-2998 colon): 0.496 µM
TGI (NCI-H522 lung): 489 nM
TGI (U251 CNS): 1.25 µM
TGI (SK-MEL-28 melanoma): > 63.3 µM
TGI (CAKI-1 renal): 39.9 µM

C=C1C(=O)OC2CC3(C)OC3C3OC3C3=CC(OC3=O)C12 (configuration not stated)
GI50 (BT-549 breast): 8.33 µM
TGI (BT-549 breast): 21.5 µM
GI50 (T-47D breast): 1170 nM
TGI (T-47D breast): 4.45 µM
GI50 (SF-268 CNS): 19 µM
TGI (SF-268 CNS): 38 µM
GI50 (SK-OV-3 ovarian): 25.4 µM
TGI (SK-OV-3 ovarian): > 57 µM
GI50 (MDA-MB-231 breast): 8.33 µM
TGI (MDA-MB-231 breast): 22.7 µM
GI50 (HT29 colon): 3.21 µM
TGI (HT29 colon): 10.8 µM
GI50 (SNB-75 CNS): 14.5 µM
TGI (SNB-75 CNS): 38.6 µM
GI50 (K-562 leukemia): 2540 nM
TGI (K-562 leukemia): 6.85 µM
GI50 (NCI-H460 lung): 19.9 µM
TGI (NCI-H460 lung): 41.3 µM
GI50 (OVCAR-5 ovarian): 9.05 µM
TGI (OVCAR-5 ovarian): 25.7 µM
GI50 (HOP-92 NSCLC): 2010 nM
TGI (HOP-92 NSCLC): 4.77 µM
GI50 (HOP-62 NSCLC): 15.2 µM
TGI (HOP-62 NSCLC): 41.5 µM
GI50 (MOLT-4 leukemia): 3.25 µM
TGI (MOLT-4 leukemia): 9.75 µM
GI50 (MALME-3M melanoma): 2120 nM
TGI (MALME-3M melanoma): 4.19 µM
GI50 (UO-31 renal): 2840 nM
TGI (UO-31 renal): 7.54 µM
GI50 (PC-3 prostate): 15.9 µM
TGI (PC-3 prostate): 32.9 µM
GI50 (A549 NSCLC): 21.3 µM
TGI (A549 NSCLC): 46.8 µM
GI50 (IGROV1 ovarian): 21.2 µM
TGI (IGROV1 ovarian): 40.7 µM
GI50 (NCI-H23 lung): 13.4 µM
TGI (NCI-H23 lung): 32.6 µM
GI50 (DU-145 prostate): 16.6 µM
TGI (DU-145 prostate): 34.3 µM
GI50 (UACC-257 melanoma): 1920 nM
TGI (UACC-257 melanoma): 4.03 µM
GI50 (NCI-H226 lung): 8.82 µM
TGI (NCI-H226 lung): 28.5 µM
GI50 (OVCAR-4 ovarian): 2140 nM
TGI (OVCAR-4 ovarian): 4.86 µM
GI50 (SK-MEL-2 melanoma): 15.4 µM
TGI (SK-MEL-2 melanoma): 36.4 µM
GI50 (SNB-19 CNS): > 100 µM
TGI (SNB-19 CNS): > 100 µM
GI50 (MDA-MB-435): 9.57 µM
TGI (MDA-MB-435): 29.3 µM
GI50 (NCI/ADR-RES ovarian): 27.2 µM
TGI (NCI/ADR-RES ovarian): 69.3 µM
GI50 (SK-MEL-5 melanoma): 14.9 µM
TGI (SK-MEL-5 melanoma): 30.3 µM
GI50 (ACHN renal): 1810 nM
TGI (ACHN renal): 3.35 µM
GI50 (SR leukemia): 2820 nM
TGI (SR leukemia): 7.81 µM
GI50 (KM12 colon): 18.7 µM
TGI (KM12 colon): 37.7 µM
GI50 (LOX IMVI melanoma): 4.18 µM
TGI (LOX IMVI melanoma): 12.1 µM
GI50 (A498 renal): 15.8 µM
TGI (A498 renal): 30.5 µM
GI50 (TK-10 renal): 1910 nM
TGI (TK-10 renal): 3.39 µM
GI50 (HCT-15 colon): 2400 nM
TGI (HCT-15 colon): 6.45 µM
GI50 (786-0 renal): 17.2 µM
TGI (786-0 renal): 33.8 µM
GI50 (HS 578T breast): 19.3 µM
TGI (HS 578T breast): 68.7 µM
GI50 (UACC-62 melanoma): 9.11 µM
TGI (UACC-62 melanoma): 22.3 µM
GI50 (SF-539 CNS): 4.43 µM
TGI (SF-539 CNS): 16.7 µM
GI50 (M14 melanoma): 8.75 µM
TGI (M14 melanoma): 24.2 µM
GI50 (SF-295 CNS): 37.4 µM
TGI (SF-295 CNS): > 100 µM
GI50 (HCT-116 colon): 1670 nM
TGI (HCT-116 colon): 3.15 µM
GI50 (SW-620 colon): 1350 nM
TGI (SW-620 colon): 3.04 µM
GI50 (HL-60(TB) leukemia): 2130 nM
TGI (HL-60(TB) leukemia): 4830 nM
GI50 (RPMI-8226 leukemia): 7.34 µM
TGI (RPMI-8226 leukemia): 33.2 µM
GI50 (RXF 393 renal): 1810 nM
TGI (RXF 393 renal): 3.66 µM
GI50 (OVCAR-8 ovarian): 3.32 µM
TGI (OVCAR-8 ovarian): 19.3 µM
GI50 (MCF7 breast): 6.05 µM
TGI (MCF7 breast): 27.6 µM
GI50 (COLO 205 colon): 539 nM
TGI (COLO 205 colon): 1250 nM
GI50 (CCRF-CEM leukemia): 1050 nM
TGI (CCRF-CEM leukemia): 3200 nM
GI50 (OVCAR-3 ovarian): 2030 nM
TGI (OVCAR-3 ovarian): 3610 nM
GI50 (SN12C renal): 11.3 µM
TGI (SN12C renal): 25.2 µM
GI50 (HCC-2998 colon): 17.4 µM
TGI (HCC-2998 colon): 33.9 µM
GI50 (NCI-H522 lung): 299 nM
TGI (NCI-H522 lung): 904 nM
GI50 (EKVX NSCLC): 19 µM
TGI (EKVX NSCLC): 41.9 µM
GI50 (U251 CNS): 17.7 µM
TGI (U251 CNS): 35 µM
GI50 (SK-MEL-28 melanoma): 5.75 µM
TGI (SK-MEL-28 melanoma): 12.5 µM
GI50 (CAKI-1 renal): 1480 nM
TGI (CAKI-1 renal): 3 µM
